Results taken from USRE48335E1, “Polymyxin derivatives as antimicrobial compounds” (priority 2014, dated 2020).
Converted amounts (≈) assume the structure as drawn. Positions of bridges follow the written chain, without caps; N, C: chain ends. Non-standard residues stand in square brackets, D forms with d. Residues, ends and D or L forms follow the SMILES beside them. *: point of attachment. Benzoyl(3,5-Cl2) = O=C(c1cc(Cl)cc(Cl)c1)*; Phenylacetyl(3-Cl) = O=C(Cc1cccc(Cl)c1)*; Benzoyl(3-Cl) = O=C(c1cccc(Cl)c1)*; X4 = O=C(c1ccc(Cl)c(Cl)c1)*; X3 = O=C(c1ccc(Cl)cc1Cl)*; Dab = NCC[C@H](N)C(=O)O; Abu = CC[C@H](N)C(=O)O; Dap = NC[C@H](N)C(=O)O

Assays:
Acinetobacter baumannii = conditions: for MIC: A. baumannii ATCC 19606; for Minimum inhibitory concentration, Ab A ATCC 17978: Acinetobacter baumannii ATCC 17978; for Minimum inhibitory concentration, Ab A ATCC 17978 / Minimum inhibitory concentration, Ab ATCC 19606 / Minimum inhibitory concentration, Ab FADDI-AB034: broth microdilution in CAMHB; for Minimum inhibitory concentration, Ab ATCC 19606: Acinetobacter baumannii ATCC 19606; for Minimum inhibitory concentration, Ab FADDI-AB034: Acinetobacter baumannii FADDI-AB034
How it was run: (§1)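 Broth microdilution MICs following CLSI standards in cation-adjusted Mueller-Hinton broth. Lipopeptides tested as TFA salts; polymyxin B sulphate served as control.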

Enterobacter cloacae = conditions: broth microdilution in CAMHB; for Minimum inhibitory concentration, Ec FADDI-EC001: Enterobacter cloacae FADDI-EC001; for Minimum inhibitory concentration, Ec FADDI-EC003: Enterobacter cloacae FADDI-EC003; for Minimum inhibitory concentration, Ec FADDI-EC006: Enterobacter cloacae FADDI-EC006
How it was run: as §1

Klebsiella pneumoniae = conditions: K. pneumoniae FADDI-KP032
How it was run: as §1

Pseudomonas aeruginosa = conditions: for MIC: P. aeruginosa ATCC 27853; for Minimum inhibitory concentration, Pa ATCC 27853: Pseudomonas aeruginosa ATCC 27853; for Minimum inhibitory concentration, Pa ATCC 27853 / Minimum inhibitory concentration, Pa FADDI-PA022 / Minimum inhibitory concentration, Pa FADDI-PA025: broth microdilution in CAMHB; for Minimum inhibitory concentration, Pa FADDI-PA022: Pseudomonas aeruginosa FADDI-PA022; for Minimum inhibitory concentration, Pa FADDI-PA025: Pseudomonas aeruginosa FADDI-PA025
How it was run: as §1

A. baumannii ATCC 19606 = assay: In vivo efficacy in mouse blood infection model (neutropenic Swiss mice); conditions: compound, free base 4 mg/kg intravenously 2 h after inoculation, blood at 4 h
How it was run: (§2)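 Neutropenic Swiss mice (cyclophosphamide 150 mg/kg day −4, 100 mg/kg day −1, i.p.) infected i.v. with early log-phase bacteria; 4 mg/kg free base i.v. given 2 h post-inoculation. Blood CFU by cardiac puncture 4 h post-dose; Δlog10 CFU/mL treated versus saline controls.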

[1] = tested on: K. pneumoniae FADDI-KP032; assay: as above; conditions: compound, free base 4 mg/kg intravenously 2 h after inoculation, blood at 4 h
How it was run: as §2

P. aeruginosa ATCC 27853 = assay: as above; conditions: compound, free base 4 mg/kg intravenously 2 h after inoculation, blood at 4 h
How it was run: as §2

[2] = Nephrotoxicity in a mouse model (kidney histology score); type: in vivo; conditions: mice, subcutaneous 12 mg base/kg, 6 doses in one day every 2 h; for Max Overall Kidney Histology Score: kidney ~20 h after last dose, product of percentage score and grade score; for Max Kidney Histology Score: semiquantitative score (SQS) 0 to +5
Procedure: PMB sulphate (Batch 20120204) and colistin sulphate (Batch 20120719) were supplied by Betapharma (Shanghai Co., Ltd, China). […] At ˜20 h after the last dose, mice were euthanised by inhalation of an overdose of isoflurane. […] The formalin-fixed kidneys were then sent to the Australian Phenomics Network-Histopathology and Organ Pathology (The University of Melbourne, Parkville, VIC, Australia) for histological examination. The samples were examined by a pathologist who was blind to the treatment groups. Lesions were rated as follows: mild acute tubular damage with tubular dilation, prominent nuclei and a few pale […] tubular casts (Grade 1); severe acute tubular damage with necrosis of tubular epithelial cells and numerous tubular casts (Grade 2); acute cortical necrosis/infarction of tubules and glomeruli with or without papillary necrosis (Grade 3). […] The overall kidney histology score was calculated as the product of percentage score and grade score. […] These scores were assigned as follows: […] SQS+3=moderate damage (overall score, 30 to <45); […]

SMILES | MIC (Acinetobacter baumannii) [µg/mL] | Minimum inhibitory concentration, Ab A ATCC 17978 (Acinetobacter baumannii) [µg/mL] | Minimum inhibitory concentration, Ab ATCC 19606 (Acinetobacter baumannii) [µg/mL] | Minimum inhibitory concentration, Ab FADDI-AB034 (Acinetobacter baumannii) [µg/mL] | Minimum inhibitory concentration, Ec FADDI-EC001 (Enterobacter cloacae) [µg/mL] | Minimum inhibitory concentration, Ec FADDI-EC003 (Enterobacter cloacae) [µg/mL] | Minimum inhibitory concentration, Ec FADDI-EC006 (Enterobacter cloacae) [µg/mL] | MIC (Klebsiella pneumoniae) [µg/mL] | MIC (Pseudomonas aeruginosa) [µg/mL] | Minimum inhibitory concentration, Pa ATCC 27853 (Pseudomonas aeruginosa) [µg/mL] | Minimum inhibitory concentration, Pa FADDI-PA022 (Pseudomonas aeruginosa) [µg/mL] | Minimum inhibitory concentration, Pa FADDI-PA025 (Pseudomonas aeruginosa) [µg/mL] | Δ log (Treated-Control at 4 h) (A. baumannii ATCC 19606) [log10 CFU/mL] | Δ log (Treated-Control at 4 h) [1] [log10 CFU/mL] | Δ log (Treated-Control at 4 h) (P. aeruginosa ATCC 27853) [log10 CFU/mL] | Max Overall Kidney Histology Score [2] | Max Kidney Histology Score [2]
CC[C@@H]1NC(=O)[C@@H](CC(C)C)NC(=O)[C@H](CCN)NC(=O)[C@@H](NC(=O)[C@H](CN)NC(=O)[C@@H](NC(=O)[C@H](CCN)NC(=O)c2ccc(Cl)c(Cl)c2)[C@@H](C)O)CCNC(=O)[C@H]([C@@H](C)O)NC(=O)[C@H](CCN)NC(=O)[C@H](CCN)NC1=O [Compound 71] (X4-[Dab]T[Dap][Dab][Dab][dL][Abu][Dab][Dab]T; lactam 4-C) | 0.5 (≈ 0.431 µM) | 0.25 (≈ 0.215 µM) | 0.5 (≈ 0.431 µM) | 0.25 (≈ 0.215 µM) | 1 (≈ 0.862 µM) | 0.25 (≈ 0.215 µM) | 1 (≈ 0.862 µM) | 0.5 (≈ 0.431 µM) | 0.5 (≈ 0.431 µM) | 0.5 (≈ 0.431 µM) | 4 (≈ 3.45 µM) | 1 (≈ 0.862 µM) | −1.82 | −2.98 | −4.04 | 0.0 | 0 (SQS 0=no significant change (overall score, <1))
CC[C@@H]1NC(=O)[C@@H](CC(C)C)NC(=O)[C@H](CCN)NC(=O)[C@@H](NC(=O)[C@H](CN)NC(=O)[C@@H](NC(=O)[C@H](CCN)NC(=O)Cc2cccc(Cl)c2)[C@@H](C)O)CCNC(=O)[C@H]([C@@H](C)O)NC(=O)[C@H](CCN)NC(=O)[C@H](CCN)NC1=O [Compound 79] ({Phenylacetyl(3-Cl)}-[Dab]T[Dap][Dab][Dab][dL][Abu][Dab][Dab]T; lactam 4-C) | 1 (≈ 0.877 µM) | 0.5 (≈ 0.439 µM) | 1 (≈ 0.877 µM) | 1 (≈ 0.877 µM) | 0.25 (≈ 0.219 µM) | <0.125 | 2 (≈ 1.75 µM) | <0.125 | 0.5 (≈ 0.439 µM) | 0.5 (≈ 0.439 µM) | 1 (≈ 0.877 µM) | 1 (≈ 0.877 µM) | – | – | −2.28 | 5.0 | +1 (SQS+1=mild damage (overall score, 1 to <15))
CC[C@@H]1NC(=O)[C@@H](CC(C)C)NC(=O)[C@H](CCN)NC(=O)[C@@H](NC(=O)[C@H](CN)NC(=O)[C@@H](NC(=O)[C@H](CCN)NC(=O)c2ccc(Cl)cc2Cl)[C@@H](C)O)CCNC(=O)[C@H]([C@@H](C)O)NC(=O)[C@H](CCN)NC(=O)[C@H](CCN)NC1=O [Compound 82] (X3-[Dab]T[Dap][Dab][Dab][dL][Abu][Dab][Dab]T; lactam 4-C) | 0.5 (≈ 0.431 µM) | 0.5 (≈ 0.431 µM) | 0.5 (≈ 0.431 µM) | 0.25 (≈ 0.215 µM) | <0.125 | <0.125 | <0.125 | <0.125 | 0.5 (≈ 0.431 µM) | 0.5 (≈ 0.431 µM) | 0.5 (≈ 0.431 µM) | 1 (≈ 0.862 µM) | −1.44 | −3.33 | −3.44 | 0.0 | 0 (SQS 0=no significant change (overall score, <1))
CC[C@@H]1NC(=O)[C@@H](CC(C)C)NC(=O)[C@H](CCN)NC(=O)[C@@H](NC(=O)[C@H](CN)NC(=O)[C@@H](NC(=O)[C@H](CCN)NC(=O)c2cccc(Cl)c2)[C@@H](C)O)CCNC(=O)[C@H]([C@@H](C)O)NC(=O)[C@H](CCN)NC(=O)[C@H](CCN)NC1=O [Compound 88] ({Benzoyl(3-Cl)}-[Dab]T[Dap][Dab][Dab][dL][Abu][Dab][Dab]T; lactam 4-C) | 2 (≈ 1.78 µM) | 0.5 (≈ 0.444 µM) | 2 (≈ 1.78 µM) | 0.5 (≈ 0.444 µM) | 1 (≈ 0.888 µM) | 0.25 (≈ 0.222 µM) | 0.5 (≈ 0.444 µM) | 0.5 (≈ 0.444 µM) | 0.5 (≈ 0.444 µM) | 0.5 (≈ 0.444 µM) | 1 (≈ 0.888 µM) | 2 (≈ 1.78 µM) | −2.46 | – | −3.33 | 0.0 | 0 (SQS 0=no significant change (overall score, <1))
CC[C@@H]1NC(=O)[C@@H](CC(C)C)NC(=O)[C@H](CCN)NC(=O)[C@@H](NC(=O)[C@H](CN)NC(=O)[C@@H](NC(=O)[C@H](CCN)NC(=O)c2cc(Cl)cc(Cl)c2)[C@@H](C)O)CCNC(=O)[C@H]([C@@H](C)O)NC(=O)[C@H](CCN)NC(=O)[C@H](CCN)NC1=O [Compound 96] ({Benzoyl(3,5-Cl2)}-[Dab]T[Dap][Dab][Dab][dL][Abu][Dab][Dab]T; lactam 4-C) | 0.5 (≈ 0.431 µM) | 0.25 (≈ 0.215 µM) | 0.5 (≈ 0.431 µM) | 0.25 (≈ 0.215 µM) | 1 (≈ 0.862 µM) | 1 (≈ 0.862 µM) | 0.5 (≈ 0.431 µM) | <0.125 | 0.25 (≈ 0.215 µM) | 0.25 (≈ 0.215 µM) | 0.25 (≈ 0.215 µM) | 0.5 (≈ 0.431 µM) | −2.42 | −2.75 | −3.45 | 2.0 | +1 (SQS+1=mild damage (overall score, 1 to <15))
